Measurements from US20050222048A1, “Novel synthetic C-glycolipids, their synthesis and use to treat infections, cancer and autoimmune diseases” (The Research Foundation of The City University of New York, priority 2004, published 2005).

Tested on: IFN-γ
Assay: Serum IFN-γ concentration by sandwich ELISA after i.v. injection of glycolipid into mice
Format: in vivo
Conditions: BALB/c mice, 1 μg i.v., ELISA at 2, 6, 12 and 24 hours post-injection
Method: α-Galactosylceramide (α-GalCer, KRN or KRN7000) was synthesized by Kirin Brewery (Gumma, Japan). The stock solution was dissolved in a 0.5% polysorbate −20 (Nikko Chemical, Tokyo), 0.9% NaCl solution at a concentration of 200 μg/ml, and diluted in PBS just before injection into mice. α-C-galactosylceramide (α-C-GalCer, CRONY or CRONY-101) was synthesized as described in commonly owned U.S. patent application Ser. No. 10/462,211. Compounds […], GCK75(a) and GCK75(b) were synthesized as described herein. The stock solution was originally dissolved in 100% DMSO at a concentration of 1 mg/ml. Before injection into mice, it was diluted to a concentration of 200 μg/ml in a 0.5% polysorbate-20 (Nikko Chemical, Tokyo), 0.9% NaCl solution, and diluted in PBS just before injection into mice. […]
The serum concentrations of IFN-γ were measured at 2, 6, 12, and 24 hours after treatment with α-GalCer, α-C-GalCer, compound […], GCK75(a), GCK75(b), or nothing using a sandwich ELISA (e-bioscience, San Diego).
To compare the timing of immunological responses to α-GalCer (KRN), α-C-GalCer (CRONY), GCM11i, GCK75(a), and GCK75(b), mice were injected intravenously (i.v.) with 1 μg of each of the glycolipids or with nothing. At 2, 6, 12, and 24 hours post-injection, IFN-γ concentrations in the sera were measured by ELISA.

α-C-galactosylceramide [α-C-GalCer]
time of peak IFN-γ response in the sera post-injection: 24 h
